Experimental data: US20250312352A1, “GLP-1R MODULATING COMPOUNDS” (Gilead Sciences, Inc., priority 2021, published 2025)

target: T1, GLP-1R (Homo sapiens, UniProt P43220); test: GLP-1R activation cAMP assay (Assay 1 or Assay 2); type: cell-based; conditions: cAMP increase in CHO cells stably expressing GLP-1R; compounds run on one of the two cAMP assays
T1 construct: host or cells: CHO cells
Outline: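 CHO cells stably expressing human GLP-1R were incubated 1 h in HBSS/20 mM HEPES/0.1% BSA, then exposed to 10-point agonist dilutions for 30 min at 37 °C. cAMP increase was measured with an HTRF Gs dynamic kit; EC50 from sigmoidal fit of response versus log concentration.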

T1 sequence (P43220 24-463): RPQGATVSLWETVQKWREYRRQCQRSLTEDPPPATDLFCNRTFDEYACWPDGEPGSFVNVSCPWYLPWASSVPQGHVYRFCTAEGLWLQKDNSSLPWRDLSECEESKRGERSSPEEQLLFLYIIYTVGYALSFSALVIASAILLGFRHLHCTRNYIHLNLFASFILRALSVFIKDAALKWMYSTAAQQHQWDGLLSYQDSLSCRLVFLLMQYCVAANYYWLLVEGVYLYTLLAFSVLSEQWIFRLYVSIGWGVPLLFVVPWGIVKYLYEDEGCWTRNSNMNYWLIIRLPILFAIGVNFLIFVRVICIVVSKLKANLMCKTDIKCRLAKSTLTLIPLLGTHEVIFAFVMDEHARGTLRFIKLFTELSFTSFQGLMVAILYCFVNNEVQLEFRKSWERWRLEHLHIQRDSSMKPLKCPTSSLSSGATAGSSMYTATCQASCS

Q: How did the EC50 turn out when `O=C(O)c1ccc2nc(Cc3cc(F)c(-c4cccc(OCc5ccc(-c6cn(C7CC7)nn6)cc5F)n4)cc3F)n(C[C@@H]3CCO3)c2c1` [Example 214, (S)-2-(4-(6-((4-(1-cyclopropyl-1H-1,2,3-triazol-4-yl)-2-fluorobenzyl)oxy)pyridin-2-yl)-2,5-difluorobenzyl)-1-(oxetan-2-ylmethyl)-1H-benzo[d]imidazole-6-carboxylic acid] was run?
A: 0.08 nM

Q: `O=C(O)c1ccc2nc(Cc3cc(F)c(-c4cccc(OCc5ccc(-c6cn(C7COC7)nn6)cc5F)n4)cc3F)n(C[C@@H]3CCO3)c2c1` [Example 215, (S)-2-(2,5-difluoro-4-(6-((2-fluoro-4-(1-(oxetan-3-yl)-1H-1,2,3-triazol-4-yl)benzyl)oxy)pyridin-2-yl)benzyl)-1-(oxetan-2-ylmethyl)-1H-benzo[d]imidazole-6-carboxylic acid] was tested. Which EC50 did it give?
A: 0.18 nM

Q: How did the EC50 turn out when `O=C(O)c1ccc2nc(Cc3cc(F)c(-c4cccc(OCc5ccc(-c6cn(C78CC(C7)C8)nn6)cc5F)n4)cc3F)n(C[C@@H]3CCO3)c2c1` [Example 216, (S)-2-(4-(6-((4-(1-(bicyclo[1.1.1]pentan-1-yl)-1H-1,2,3-triazol-4-yl)-2-fluorobenzyl)oxy)pyridin-2-yl)-2,5-difluorobenzyl)-1-(oxetan-2-ylmethyl)-1H-benzo[d]imidazole-6-carboxylic acid] was run?
A: 0.72 nM

Q: With `O=C(O)c1ccc2nc(Cc3cc(F)c(-c4cccc(OCc5ccc(-c6cn([C@H]7CCOC7)nn6)cc5F)n4)cc3F)n(C[C@@H]3CCO3)c2c1` [Example 217, 2-(2,5-difluoro-4-(6-((2-fluoro-4-(1-((S)-tetrahydrofuran-3-yl)-1H-1,2,3-triazol-4-yl)benzyl)oxy)pyridin-2-yl)benzyl)-1-(((S)-oxetan-2-yl)methyl)-1H-benzo[d]imidazole-6-carboxylic acid] as the compound, how does the EC50 read?
A: 0.27 nM

Q: With `O=C(O)c1ccc2nc(Cc3cc(F)c(-c4cccc(OCc5ccc(-c6cn(C7CCOCC7)nn6)cc5F)n4)cc3F)n(C[C@@H]3CCO3)c2c1` [Example 218, (S)-2-(2,5-difluoro-4-(6-((2-fluoro-4-(1-(tetrahydro-2H-pyran-4-yl)-1H-1,2,3-triazol-4-yl)benzyl)oxy)pyridin-2-yl)benzyl)-1-(oxetan-2-ylmethyl)-1H-benzo[d]imidazole-6-carboxylic acid] as the compound, how does the EC50 read?
A: 0.8 nM

Q: With `CC(C)(C)OC(=O)N[C@H]1C[C@@H](n2cc(-c3ccc(COc4cccc(-c5cc(F)c(Cc6nc7ccc(C(=O)O)cc7n6C[C@@H]6CCO6)cc5F)n4)c(F)c3)nn2)C1` [Example 219, 2-(4-(6-((4-(1-((1s,3s)-3-((tert-butoxycarbonyl)amino)cyclobutyl)-1H-1,2,3-triazol-4-yl)-2-fluorobenzyl)oxy)pyridin-2-yl)-2,5-difluorobenzyl)-1-(((S)-oxetan-2-yl)methyl)-1H-benzo[d]imidazole-6-carboxylic acid] as the compound, how does the EC50 read?
A: 0.85 nM

Q: How did the EC50 turn out when `CN1CC(n2cc(-c3ccc(COc4cccc(-c5cc(F)c(Cc6nc7ccc(C(=O)O)cc7n6C[C@@H]6CCO6)cc5F)n4)c(F)c3)nn2)C1` [Example 220, (S)-2-(2,5-difluoro-4-(6-((2-fluoro-4-(1-(1-methylazetidin-3-yl)-1H-1,2,3-triazol-4-yl)benzyl)oxy)pyridin-2-yl)benzyl)-1-(oxetan-2-ylmethyl)-1H-benzo[d]imidazole-6-carboxylic acid] was run?
A: 2.08 nM

Q: Which EC50 does the source give for `COCCn1c(Cc2cc(F)c(-c3cccc(OCc4ccc(C#CC(C)(C)S(C)(=O)=O)nc4)n3)cc2F)nc2ccc(C(=O)O)cc21` [Example 221, 2-[[2,5-difluoro-4-[6-[[6-(3-methyl-3-methylsulfonyl-but-1-ynyl)-3-pyridyl]methoxy]-2-pyridyl]phenyl]methyl]-3-(2-methoxyethyl)benzimidazole-5-carboxylic acid] here?
A: 1070 nM

Q: How did the EC50 turn out when `NC(=O)c1ccc(COc2nccc(-c3cc(F)c(Cc4nc5ccc(C(=O)O)cc5n4C[C@@H]4CCO4)cc3F)n2)cn1` [Example 222, (S)-2-(4-(2-((6-carbamoylpyridin-3-yl)methoxy)pyrimidin-4-yl)-2,5-difluorobenzyl)-1-(oxetan-2-ylmethyl)-1H-benzo[d]imidazole-6-carboxylic acid] was run?
A: 3.59 nM

Q: `NC(=O)c1ccc(COc2nccc(-c3cc(F)c(Cc4nc5ccc(C(=O)O)cc5n4C[C@@H]4CCO4)cc3F)n2)c(OC(F)F)n1` [Example 223, (S)-2-(4-(2-((6-carbamoyl-2-(difluoromethoxy)pyridin-3-yl)methoxy)pyrimidin-4-yl)-2,5-difluorobenzyl)-1-(oxetan-2-ylmethyl)-1H-benzo[d]imidazole-6-carboxylic acid] was tested. Which EC50 did it give?
A: 0.51 nM

Q: For `CO[C@H](C)Cn1c(Cc2cc(F)c(-c3cccc(OCc4ncc(-c5cnn(C)c5)s4)n3)cc2F)nc2ccc(C(=O)O)cc21` [Example 224, 2-[[2,5-difluoro-4-[6-[[5-(1-methylpyrazol-4-yl)thiazol-2-yl]methoxy]-2-pyridyl]phenyl]methyl]-3-[(2R)-2-methoxypropyl]benzimidazole-5-carboxylic acid], which EC50 is on record?
A: 1.11 nM

Q: For `COCCn1c(Cc2cc(F)c(-c3cccc(OCc4ccc(-c5cnn(C6CC6)c5)cc4F)n3)cc2F)nc2ccc(C(=O)O)cc21` [Example 225, 2-(4-(6-((4-(1-cyclopropyl-1H-pyrazol-4-yl)-2-fluorobenzyl)oxy)pyridin-2-yl)-2,5-difluorobenzyl)-1-(2-methoxyethyl)-1H-benzo[d]imidazole-6-carboxylic acid], which EC50 is on record?
A: 0.7 nM

Q: `COCCn1c(Cc2cc(F)c(-c3cccc(OCc4ccc(-c5cnn(C6CCOCC6)c5)cc4F)n3)cc2F)nc2ccc(C(=O)O)cc21` [Example 226, 2-(2,5-difluoro-4-(6-((2-fluoro-4-(1-(tetrahydro-2H-pyran-4-yl)-1H-pyrazol-4-yl)benzyl)oxy)pyridin-2-yl)benzyl)-1-(2-methoxyethyl)-1H-benzo[d]imidazole-6-carboxylic acid] was tested. Which EC50 did it give?
A: 8.36 nM

Q: Which EC50 does the source give for `COCCn1c(Cc2cc(F)c(-c3cccc(OCc4ccc(-c5cnn(CCN6CCOCC6)c5)cc4F)n3)cc2F)nc2ccc(C(=O)O)cc21` [Example 227, 2-(2,5-difluoro-4-(6-((2-fluoro-4-(1-(2-morpholinoethyl)-1H-pyrazol-4-yl)benzyl)oxy)pyridin-2-yl)benzyl)-1-(2-methoxyethyl)-1H-benzo[d]imidazole-6-carboxylic acid] here?
A: 3.45 nM

Q: Which EC50 does the source give for `COCCn1c(Cc2cc(F)c(-c3cccc(OCc4ccc(-c5ccc(N6CCCC6)nc5)cc4F)n3)cc2F)nc2ccc(C(=O)O)cc21` [Example 228, 2-(2,5-difluoro-4-(6-((2-fluoro-4-(6-(pyrrolidin-1-yl)pyridin-3-yl)benzyl)oxy)pyridin-2-yl)benzyl)-1-(2-methoxyethyl)-1H-benzo[d]imidazole-6-carboxylic acid] here?
A: 26 nM

Q: For `COCCn1c(Cc2cc(F)c(-c3cccc(OCc4ccc(-c5cnn(C6CCNCC6)c5)nc4)n3)cc2F)nc2ccc(C(=O)O)cc21` [Example 229, 2-(2,5-difluoro-4-(6-((6-(1-(piperidin-4-yl)-1H-pyrazol-4-yl)pyridin-3-yl)methoxy)pyridin-2-yl)benzyl)-1-(2-methoxyethyl)-1H-benzo[d]imidazole-6-carboxylic acid], which EC50 is on record?
A: 17.9 nM

Q: How did the EC50 turn out when `Cn1ncc2cc(COc3cccc(-c4cc(F)c(Cc5nc6ccc(C(=O)O)cc6n5C[C@@H]5CCO5)cc4F)n3)sc21` [Example 230, 2-[[2,5-difluoro-4-[6-[(1-methylthieno[2,3-c]pyrazol-5-yl)methoxy]-2-pyridyl]phenyl]methyl]-3-[[(2S)-oxetan-2-yl]methyl]benzimidazole-5-carboxylic acid] was run?
A: 0.33 nM

Q: With `COCCn1c(Cc2cc(F)c(-c3cccc(OCc4ccc(C#CC5COC5)cc4F)n3)cc2F)nc2ccc(C(=O)O)cc21` [Example 231, 2-[[2,5-difluoro-4-[6-[[2-fluoro-4-[2-(oxetan-3-yl)ethynyl]phenyl]methoxy]-2-pyridyl]phenyl]methyl]-3-(2-methoxyethyl)benzimidazole-5-carboxylic acid] as the compound, how does the EC50 read?
A: 1.51 nM

Q: With `COCCn1c(Cc2cc(F)c(-c3cccc(OCc4ccc(C#CC5CNC5)cc4F)n3)cc2F)nc2ccc(C(=O)O)cc21` [Example 232, 2-(4-(6-((4-(azetidin-3-ylethynyl)-2-fluorobenzyl)oxy)pyridin-2-yl)-2,5-difluorobenzyl)-1-(2-methoxyethyl)-1H-benzo[d]imidazole-6-carboxylic acid] as the compound, how does the EC50 read?
A: 5.65 nM

Q: For `COCCn1c(Cc2cc(F)c(-c3cccc(OCc4ccc(C#Cc5cncn5C)cc4F)n3)cc2F)nc2ccc(C(=O)O)cc21` [Example 233, 2-(2,5-difluoro-4-(6-((2-fluoro-4-((1-methyl-1H-imidazol-5-yl)ethynyl)benzyl)oxy)pyridin-2-yl)benzyl)-1-(2-methoxyethyl)-1H-benzo[d]imidazole-6-carboxylic acid], which EC50 is on record?
A: 1.2 nM

Q: `COCCn1c(Cc2cc(F)c(-c3cccc(OCc4ccc(C#CC5CN(C)C5)cc4F)n3)cc2F)nc2ccc(C(=O)O)cc21` [Example 234, 2-[[2,5-difluoro-4-[6-[[2-fluoro-4-[2-(1-methylazetidin-3-yl)ethynyl]phenyl]methoxy]-2-pyridyl]phenyl]methyl]-3-(2-methoxyethyl)benzimidazole-5-carboxylic acid] was tested. Which EC50 did it give?
A: 5.9 nM

Q: How did the EC50 turn out when `COCCn1c(Cc2cc(F)c(-c3cccc(OCc4ccc(C#CC5CN(C(=O)OC)C5)cc4F)n3)cc2F)nc2ccc(C(=O)O)cc21` [Example 235, 2-[[2,5-difluoro-4-[6-[[2-fluoro-4-[2-(1-methoxycarbonylazetidin-3-yl)ethynyl]phenyl]methoxy]-2-pyridyl]phenyl]methyl]-3-(2-methoxyethyl)benzimidazole-5-carboxylic acid] was run?
A: 1.1 nM

Q: For `O=C(O)c1ccc2nc(Cc3cc(F)c(-c4cccc(OCc5cnc(-c6cn(C7COC7)nn6)cc5F)n4)cc3F)n(C[C@@H]3CCO3)c2c1` [Example 236, 2-[[2,5-difluoro-4-[6-[[4-fluoro-6-[1-(oxetan-3-yl)triazol-4-yl]-3-pyridyl]methoxy]-2-pyridyl]phenyl]methyl]-3-[[(2S)-oxetan-2-yl]methyl]benzimidazole-5-carboxylic acid], which EC50 is on record?
A: 0.22 nM
